What was measured:
[1] = tested on: Brain; assay: Unbound volume of distribution in Sprague-Dawley rat brain slices at 100 nM after 5 hrs in presence of 10 uM of cyclosporine; format: ADME, tissue-based; conditions: 0.1 µM
[2] = tested on: Brain; conditions: rat, 5 h, 0.1 µM
[3] = in vivo; conditions: Sprague-Dawley, rat
[4] = physchem
Description: Dissociation constant, pKa of the acidic compound by capillary electrophoresis-mass spectrometry analysis

[5] = in vitro; conditions: Sprague-Dawley, rat, brain homogenate
[6] = tested on: Brain; assay: Drug uptake in Sprague-Dawley rat brain slices in presence of 50 nM of monensin; format: ADME, tissue-based
[7] = tested on: Brain; assay: Drug uptake in Sprague-Dawley rat brain slices in presence of 1 uM of decynium-22; format: ADME, tissue-based
[8] = Dissociation constant, pKa of the basic compound by capillary electrophoresis-mass spectrometry analysis; format: physicochemical

| Structure (SMILES) | Vdu ([2]; in vivo) [mL/g] | Kp uu ([3]; brain) | pKa [4] | fraction unbound at 5 µM [5] | Vdu [2] [mL/g] | Kp uu ([3]; brain and plasma) | other results |
| --- | --- | --- | --- | --- | --- | --- | --- |
| CC(C)(C)NC(=O)[C@@H]1C[C@@H]2CCCC[C@@H]2CN1C[C@@H](O)[C@H](Cc1ccccc1)NC(=O)[C@H](CC(N)=O)NC(=O)c1ccc2ccccc2n1 | 208 | 0.79 | 6.8 | 0.0038 |  |  | Unbound brain volume of distribution [1]: Active |
| C[n+]1ccc(-c2ccccc2)cc1 |  |  |  | 0.49 | 157 | 77 | Compound recovery [6]: Not Active; Compound recovery [7]: Not Active |
| CCNC(=O)C(C(N)=O)c1ccccc1 (centres undefined) | 0.93 | 0.6 |  | 0.65 |  |  |  |
| Cc1nnc2n1-c1ccc(Cl)cc1C(c1ccccc1)=NC2 [ALPRAZOLAM] |  |  |  | 0.16 | 6.5 |  |  |
| C=CCc1ccccc1OCC(O)CNC(C)C (centres undefined) [ALPRENOLOL] | 50 | 2.83 |  | 0.057 |  |  |  |
| NC12CC3CC(CC(C3)C1)C2 [AMANTADINE] | 9.9 | 2.83 |  | 0.29 |  |  |  |
| CN(C)CCC=C1c2ccccc2CCc2ccccc21 [AMITRIPTYLINE] | 310 |  | 9.5 | 0.01 |  | 3.08 |  |
| NCC(CC(=O)O)c1ccc(Cl)cc1 (centres undefined) [BACLOFEN] |  |  | 9.7 | 0.98 | 1.7 | 1.62 | pKa [8]: 3.7 |
| CC(NC(C)(C)C)C(=O)c1cccc(Cl)c1 (centres undefined) [BUPROPION] |  |  | 8.6 |  | 16 | 2.66 |  |
| CN/C(=N/CCSCc1nc[nH]c1C)NC#N [CIMETIDINE] | 2.3 | 1.73 | 7 | 0.76 |  |  |  |
| Clc1cccc(Cl)c1N=C1NCCN1 [CLONIDINE] | 5.9 | 2.47 | 8.3 | 0.42 |  |  |  |
| COc1ccc2c3c1O[C@H]1[C@@H](O)C=C[C@H]4[C@@H](C2)N(C)CC[C@@]341 [CODEINE] | 3.2 | 1.99 | 8.4 | 0.62 |  |  |  |
| CC(C)Nc1cccnc1N1CCN(C(=O)c2cc3cc(NS(C)(=O)=O)ccc3[nH]2)CC1 [DELAVIRDINE] | 40 | 0.86 | 4.5 | 0.022 |  |  |  |
| O=C(O)Cc1ccccc1Nc1c(Cl)cccc1Cl [DICLOFENAC] |  |  |  | 0.041 | 15 | 0.61 |  |
| O=C1OC2(c3ccc(O)cc3Oc3cc(O)ccc32)c2ccccc21 [FLUORESCEIN] | 1.8 |  |  | 0.42 |  | 0.74 |  |
| NCC1(CC(=O)O)CCCCC1 [GABAPENTIN] |  |  | 10.5 |  | 4.6 | 4.55 | pKa [8]: 3.9 |
| COc1ccc2c(c1)c(CC(=O)O)c(C)n2C(=O)c1ccc(Cl)cc1 [INDOMETHACIN] | 14 | 0.6 |  | 0.044 |  |  | Compound recovery [6]: Active |
| Nc1nnc(-c2cccc(Cl)c2Cl)c(N)n1 [LAMOTRIGINE] | 4.6 | 0.96 |  | 0.21 |  |  |  |
| C[C@H]1COc2c(N3CCN(C)CC3)c(F)cc3c(=O)c(C(=O)O)cn1c23.C[C@H]1COc2c(N3CCN(C)CC3)c(F)cc3c(=O)c(C(=O)O)cn1c23.O [LEVOFLOXACIN] |  |  |  | 0.84 | 1.7 | 1.44 |  |
| CN(C)C(=O)C(CCN1CCC(O)(c2ccc(Cl)cc2)CC1)(c1ccccc1)c1ccccc1 [LOPERAMIDE] |  |  | 9 | 0.008 | 370 | 2.95 | Unbound brain volume of distribution [1]: Active |
| CN(C)C(=N)N=C(N)N [METFORMIN] |  |  |  | 0.95 | 10 | 9.51 | Compound recovery [6]: Active |

| Structure (SMILES) | Vdu ([2]; in vivo) [mL/g] | Kp uu ([3]; brain) | pKa [4] | fraction unbound at 5 µM [5] | Vdu [2] [mL/g] | Kp uu ([3]; brain and plasma) | other results |
| --- | --- | --- | --- | --- | --- | --- | --- |
| CN(Cc1cnc2nc(N)nc(N)c2n1)c1ccc(C(=O)N[C@@H](CCC(=O)O)C(=O)O)cc1 [METHOTREXATE] | 0.68 | 0.61 |  | 0.89 |  |  |  |
| Cc1ncc2n1-c1ccc(Cl)cc1C(c1ccccc1F)=NC2 [MIDAZOLAM] |  |  | 5.4 | 0.026 | 29 | 0.74 |  |
| CN1CC[C@]23c4c5ccc(O[C@@H]6O[C@H](C(=O)O)[C@@H](O)[C@H](O)[C@H]6O)c4O[C@H]2[C@@H](O)C=C[C@H]3[C@H]1C5 [MORPHINE 3-GLUCURONIDE] |  |  |  | 0.97 | 0.6 | 0.58 |  |
| CN1CC[C@]23c4c5ccc(O)c4O[C@H]2[C@@H](O[C@@H]2O[C@H](C(=O)O)[C@@H](O)[C@H](O)[C@H]2O)C=C[C@H]3[C@H]1C5 [MORPHINE GLUCURONIDE] |  |  | 9 | 0.87 | 0.98 | 0.86 | pKa [8]: 4.3 |
| CC(C)(C)NCC(O)COc1cccc2c1CC(O)C(O)C2 (centres undefined) [NADOLOL] |  |  | 9.9 |  |  |  |  |
| CN(C)C(=O)Oc1cccc([N+](C)(C)C)c1 [NEOSTIGMINE] |  |  |  | 0.95 | 3.2 | 3.07 | Compound recovery [6]: Active; Compound recovery [7]: Not Active |
| CCn1cc(C(=O)O)c(=O)c2cc(F)c(N3CCNCC3)cc21 [NORFLOXACIN] | 2.9 | 1.66 | 8.7 | 0.58 |  |  | pKa [8]: 4.4 |
| C=CCOc1ccccc1OCC(O)CNC(C)C (centres undefined) [OXPRENOLOL] | 11.8 | 3.25 | 9.7 | 0.28 |  |  |  |
| CN1CC[C@]23c4c5ccc(O)c4O[C@H]2C(=O)CC[C@@]3(O)[C@H]1C5 [OXYMORPHONE] |  |  | 8.7 | 0.75 | 4 | 2.97 |  |
| CC(=O)O[C@H]1C(=O)[C@@]2(C)[C@H]([C@H](OC(=O)c3ccccc3)[C@]3(O)C[C@H](OC(=O)[C@H](O)[C@@H](NC(=O)c4ccccc4)c4ccccc4)C(C)=C1C3(C)C)[C@]1(OC(C)=O)CO[C@@H]1C[C@@H]2O [PACLITAXEL] |  |  |  | 0.012 | 769 | 9.03 |  |
| CC(C)NCC(O)COc1cccc2[nH]ccc12 (centres undefined) [PINDOLOL] |  | 2.89 |  | 0.4 |  |  |  |
| C=C[C@H]1C[N@@]2CC[C@H]1C[C@@H]2[C@@H](O)c1ccnc2ccc(OC)cc12 [QUINIDINE] |  | 3.45 |  |  |  |  |  |
| C=C[C@H]1C[N@@]2CC[C@H]1C[C@H]2[C@H](O)c1ccnc2ccc(OC)cc12 [QUININE] |  | 3.51 |  |  |  |  |  |
| CO[C@H]1/C=C/O[C@@]2(C)Oc3c(C)c(O)c4c(O)c(c(/C=N/N5CCN(C)CC5)c(O)c4c3C2=O)NC(=O)/C(C)=C\C=C\[C@H](C)[C@H](O)[C@@H](C)[C@@H](O)[C@@H](C)[C@H](OC(C)=O)[C@@H]1C [RIFAMPIN] |  |  | 7.6 |  |  |  | pKa [8]: 2.2 |
| O=C(O)c1ccccc1O [SALICYLIC ACID] | 1 | 0.62 |  | 0.63 |  |  |  |
| O=C(O)c1cc(/N=N/c2ccc(S(=O)(=O)Nc3ccccn3)cc2)ccc1O [SULFASALAZINE] |  |  |  |  |  |  | pKa [8]: 2 |
| Nc1c2c(nc3ccccc13)CCCC2 [TACRINE] | 22 |  |  | 0.16 |  |  |  |
| CCCC(C)C1(CC)C(=O)NC(=S)NC1=O (centres undefined) [THIOPENTAL] |  |  |  |  |  |  | pKa [8]: 7.6 |
| CSc1ccc2c(c1)N(CCC1CCCCN1C)c1ccccc1S2 (centres undefined) [THIORIDAZINE] | 3333 | 2.24 | 8.9 | 0.00067 |  |  |  |
| CC1(C)O[C@@H]2[C@@H](CO[C@@]3(COS(N)(=O)=O)OC(C)(C)O[C@@H]23)O1 [TOPIRAMATE] |  |  |  | 0.61 | 3.2 | 1.96 |  |
| COc1cccc(C2(O)CCCCC2CN(C)C)c1 (centres undefined) [TRAMADOL] | 4.2 | 2.25 | 9.7 | 0.53 |  |  |  |

— ChEMBL document CHEMBL3525927, “Measurement of unbound drug exposure in brain: modeling of pH partitioning explains diverging results between the brain slice and brain homogenate methods” (Drug Metab Dispos, 2011)
